Measurements reported in US20080306038A1, “Compositions and Methods for Modulating Inflammation Using Fluoroquinolones” (priority 2007, published 2008).

Legend:
Assay type in all cases: cell-based, human
IL-6 = assay: LPS-stimulated IL-6 production in THP-1 monocytes (multiplex Luminex); design: key to Inhibition of LPS-stimulated IL-6 production: “X” signifies significant inhibition at a particular concentration
Description: (§1) Human THP-1 monocytes (ATCC TIB 202) were purchased from American Type Culture Collection (Manassas, Va.) and maintained in RPMI 1640 medium (Invitrogen, Carlsbad, Calif.) supplemented with 10% fetal bovine serum (“FBS”, Invitrogen, Carlsbad, Calif.), 100 U/mL of penicillin (Invitrogen, Carlsbad, Calif.), and 100 μg/mL of streptomycin (Invitrogen, Carlsbad, Calif.) at 37° C. in a humidified incubator with 5% CO2. THP-1 cells were pre-cultured in RPMI 1640 medium containing 10% dialyzed serum for 24 h. […] Each treatment was performed in triplicate.
(§2) Samples were analyzed using multiplex bead technology, which utilizes microspheres as the solid support for immunoassays and allows the analysis of all cytokines from each sample (D. A. Vignali, J. Immunol. Methods, Vol. 243, 243-255 (2000)). Sixteen cytokines were measured according to the manufacturer's instructions. Briefly, 50 μL of medium samples were incubated with antibody-coated capture beads overnight at 4° C. Washed beads were further incubated with biotin-labelled anti-human cytokine antibodies for 2 h at room temperature followed by incubation with streptavidin-phycoerythrin for 30 min. Samples were analyzed using Luminex 200™ (Luminex, Austin, Tex.) and Beadview software v1.0 (Upstate Cell Signaling Solutions, Temecula, Calif.). Standard curves of known concentrations of recombinant human cytokines were used to convert fluorescence units (median fluorescence intensity) to cytokine concentration in pg/mL. Only the linear portions of the standard curves were used to quantify cytokine concentrations, and in instances where the fluorescence reading exceeded the linear range of the standard curve, an appropriate dilution was performed to ensure that the concentration was in the linear portion of the curve.
(§3) All cytokine concentrations (pg/mL) were expressed as mean ±standard deviation. Statistical analysis comparing effects of treatment across groups was performed using a one-way ANOVA with a Dunnett's post-hoc comparison test using either vehicle control or LPS treatment as references. For all assays, p≦0.05 was predetermined as the criterion of statistical significance.

IL-12p40 = assay: LPS-stimulated IL-12p40 production in THP-1 monocytes (multiplex Luminex); design: key to Inhibition of LPS-stimulated IL-12p40 production: “X” signifies significant inhibition at a particular concentration; details: 18 hours
Description: as §1, §2, §3

Fractalkine = assay: LPS-stimulated fractalkine production in THP-1 monocytes (multiplex Luminex); details: 0.1-30 μg/mL, 18 hours
Description: as §1
(§4) Samples were analyzed using multiplex bead technology, which utilizes microspheres as the solid support for immunoassays and allows the analysis of all cytokines from each sample (D. A. Vignali, J. Immunol. Methods, Vol. 243, 243-255 (2000)). Sixteen cytokines were measured according to the manufacturer's instructions. Briefly, 50 μL of medium samples were incubated with antibody-coated capture beads overnight at 4° C. […] Samples were analyzed using Luminex 200™ (Luminex, Austin, Tex.) and Beadview software v1.0 (Upstate Cell Signaling Solutions, Temecula, Calif.). Standard curves of known concentrations of recombinant human cytokines were used to convert fluorescence units (median fluorescence intensity) to cytokine concentration in pg/mL. […]
(§5) All cytokine concentrations (pg/mL) were expressed as mean ±standard deviation. […]

MIP-1α = assay: LPS-stimulated MIP-1α production in THP-1 monocytes (multiplex Luminex); design: key to Inhibition of LPS-stimulated MIP-1α production: “X” signifies significant inhibition at a particular concentration
Description: as §1, §2, §3

IL-1α = assay: LPS-stimulated IL-1α production in THP-1 monocytes (multiplex Luminex); design: key to Inhibition of LPS-stimulated IL-1α production: “X” signifies significant inhibition at a particular concentration
Description: as §1, §2, §3

IL-1β = assay: LPS-stimulated IL-1β production in THP-1 monocytes (multiplex Luminex); design: key to Inhibition of LPS-stimulated IL-1β production: “X” signifies significant inhibition at a particular concentration
Description: as §1, §2, §3

IL-1ra = assay: LPS-stimulated IL-1ra production in THP-1 monocytes (multiplex Luminex); design: key to Inhibition of LPS-stimulated IL-1ra production: “X” signifies significant inhibition at a particular concentration; details: for Inhibition of LPS-stimulated IL-1ra production: 18 hours
Description: as §1, §2, §3

VEGF = assay: LPS-stimulated VEGF production in THP-1 monocytes (multiplex Luminex); design: key to Inhibition of LPS-stimulated VEGF production: “X” signifies significant inhibition at a particular concentration; details: for Inhibition of LPS-stimulated VEGF production: 18 hours, THP-1 monocytes
Description: as §1, §2, §3

G-CSF = assay: LPS-stimulated G-CSF production in THP-1 monocytes (multiplex Luminex); design: key to Inhibition of LPS-stimulated G-CSF production: “X” signifies significant inhibition at a particular concentration
Description: as §1, §2, §3

MCP-1 = assay: LPS-stimulated MCP-1 production in THP-1 monocytes (multiplex Luminex); design: key to Inhibition of LPS-stimulated MCP-1 production: “X” signifies significant inhibition at a particular concentration
Description: as §1, §2
(§6) All cytokine concentrations (pg/mL) were expressed as mean ±standard deviation. Statistical analysis comparing effects of treatment across groups was performed using a one-way ANOVA with a Dunnett's post-hoc comparison test using either vehicle control or LPS treatment as references. […]

IP-10 = assay: LPS-stimulated IP-10 production in THP-1 monocytes (multiplex Luminex); design: key to Inhibition of LPS-stimulated IP-10 production: “X” signifies significant inhibition at a particular concentration
Description: as §1, §2, §3

IL-8 = assay: LPS-stimulated IL-8 production in THP-1 monocytes (multiplex Luminex); design: key to Inhibition of LPS-stimulated IL-8 production: “X” signifies significant inhibition at a particular concentration
Description: as §1, §2, §3

GM-CSF = assay: LPS-stimulated GM-CSF production in THP-1 monocytes (multiplex Luminex); design: key to Inhibition of LPS-stimulated GM-CSF production: “X” signifies significant inhibition at a particular concentration
Description: as §1, §2, §6

RANTES = assay: LPS-stimulated RANTES production in THP-1 monocytes (multiplex Luminex); details: 0.1-30 μg/mL, 18 hours
Description: as §1, §4, §5

[1] = 1 μg/mL compound + 10 μg/mL LPS, 18 hours, THP-1 monocytes
[2] = 10 μg/mL compound + 10 μg/mL LPS, 18 hours, THP-1 monocytes
[3] = 30 μg/mL compound + 10 μg/mL LPS, 18 hours, THP-1 monocytes
[4] = FIG. 2, LPS-stimulated THP-1 monocytes
[5] = LPS-induced, THP-1 monocytes, 18 hours
[6] = 30 μg/mL compound + 10 μg/mL LPS

N[C@@H]1CCCCN(c2c(F)cc3c(=O)c(C(=O)O)cn(C4CC4)c3c2Cl)C1 [Compound Having Formula IV]
Inhibition of LPS-stimulated IL-6 production (IL-6; [1]): X
Inhibition of LPS-stimulated IL-6 production (IL-6; [2]): X
Inhibition of LPS-stimulated IL-6 production (IL-6; [3]): X
Relative potency of compound having Formula IV and moxifloxacin on IL-6 (IL-6; [4]): better potency than moxifloxacin
Concentration with significant inhibitory effect on IL-6 (IL-6; LPS-induced, THP-1 monocytes): 1000 ng/mL
Concentration at which a significant inhibitory effect was observed for IL-6 (IL-6; [5]): 1 µg/mL
Inhibition of LPS-stimulated IL-12p40 production (IL-12p40; [6]): X
Concentration at which a significant inhibitory effect was observed for IL-12p40 (IL-12p40; LPS-induced): 30 µg/mL
Effect on LPS-stimulated production of fractalkine (Fractalkine): Neither moxifloxacin nor compound having Formula IV altered
Inhibition of LPS-stimulated MIP-1α production (MIP-1α; [3]): X
Comparison of moxifloxacin and compound having Formula IV, effect on MIP-1α after LPS stimulation (MIP-1α; FIG. 1, THP-1 monocytes): comparable effects
Concentration at which a significant inhibitory effect was observed for MIP-1α (MIP-1α; [5]): 30 µg/mL
Inhibition of LPS-stimulated IL-1α production (IL-1α; 0.1 μg/mL compound + 10 μg/mL LPS, 18 hours, THP-1 monocytes): X
Inhibition of LPS-stimulated IL-1α production (IL-1α; [1]): X
Inhibition of LPS-stimulated IL-1α production (IL-1α; [2]): X
Inhibition of LPS-stimulated IL-1α production (IL-1α; [3]): X
Relative potency of compound having Formula IV and moxifloxacin on IL-1α (IL-1α; [4]): better potency than moxifloxacin
Lowest concentration with significant inhibitory effect on IL-1α (IL-1α; LPS-induced, THP-1 monocytes): 100 ng/mL
Concentration at which a significant inhibitory effect was observed for IL-1α (IL-1α; [5]): 0.1 µg/mL
Inhibition of LPS-stimulated IL-1β production (IL-1β; [3]): X
Comparison of moxifloxacin and compound having Formula IV, effect on IL-1β after LPS stimulation (IL-1β; FIG. 1, THP-1 monocytes): comparable effects
Concentration at which a significant inhibitory effect was observed for IL-1β (IL-1β; [5]): 30 µg/mL
Inhibition of LPS-stimulated IL-1ra production (IL-1ra; 1 μg/mL compound + 10 μg/mL LPS, THP-1 monocytes): X
Inhibition of LPS-stimulated IL-1ra production (IL-1ra; 10 μg/mL compound + 10 μg/mL LPS, THP-1 monocytes): X
Inhibition of LPS-stimulated IL-1ra production (IL-1ra; 30 μg/mL compound + 10 μg/mL LPS, THP-1 monocytes): X
Relative potency of compound having Formula IV and moxifloxacin on IL-1ra (IL-1ra; [4]): better potency than moxifloxacin
Concentration with significant inhibitory effect on IL-1ra (IL-1ra; LPS-induced, THP-1 monocytes): 1000 ng/mL
Inhibition of LPS-stimulated VEGF production (VEGF; 10 μg/mL compound + 10 μg/mL LPS): X
Inhibition of LPS-stimulated VEGF production (VEGF; [6]): X
Relative potency of compound having Formula IV and moxifloxacin on VEGF (VEGF; [4]): better potency than moxifloxacin
Inhibition of LPS-stimulated G-CSF production (G-CSF; [1]): X
Inhibition of LPS-stimulated G-CSF production (G-CSF; [2]): X
Inhibition of LPS-stimulated G-CSF production (G-CSF; [3]): X
Relative potency of compound having Formula IV and moxifloxacin on G-CSF (G-CSF; [4]): better potency than moxifloxacin
Concentration with significant inhibitory effect on G-CSF (G-CSF; LPS-induced, THP-1 monocytes): 1000 ng/mL
Concentration at which a significant inhibitory effect was observed for G-CSF (G-CSF; [5]): 1 µg/mL
Inhibition of LPS-stimulated MCP-1 production (MCP-1; [3]): X
Comparison of moxifloxacin and compound having Formula IV, effect on MCP-1 after LPS stimulation (MCP-1; FIG. 1, THP-1 monocytes): comparable effects
Concentration at which a significant inhibitory effect was observed for MCP-1 (MCP-1; [5]): 30 µg/mL
Inhibition of LPS-stimulated IP-10 production (IP-10; [3]): X
Comparison of moxifloxacin and compound having Formula IV, effect on IP-10 after LPS stimulation (IP-10; FIG. 1, THP-1 monocytes): comparable effects
Concentration at which a significant inhibitory effect was observed for IP-10 (IP-10; [5]): 30 µg/mL
Inhibition of LPS-stimulated IL-8 production (IL-8; [3]): X
Comparison of moxifloxacin and compound having Formula IV, effect on IL-8 after LPS stimulation (IL-8; FIG. 1, THP-1 monocytes): comparable effects
Concentration at which a significant inhibitory effect was observed for IL-8 (IL-8; [5]): 30 µg/mL
Inhibition of LPS-stimulated GM-CSF production (GM-CSF; [3]): X
Comparison of moxifloxacin and compound having Formula IV, effect on GM-CSF after LPS stimulation (GM-CSF; FIG. 1, THP-1 monocytes): comparable effects
Concentration at which a significant inhibitory effect was observed for GM-CSF (GM-CSF; [5]): 30 µg/mL
Effect on LPS-stimulated production of RANTES (RANTES): Neither moxifloxacin nor compound having Formula IV altered
